Measured values taken from US10472661B2, “Method for increasing glycosylation of a composition comprising steviol glycosides” (DSM IP ASSETS B.V., priority 2014, dated 2019).

Key:
UGT3-SEQ ID NO: 74 = target: T1, UGT3-SEQ ID NO: 74 (Stevia rebaudiana, UniProt Q6VAA6); format: biochemical; details: CFE 0.05 mg/mL, UDP-glucose 1 mM
T1 construct: made in house; host or cells: Saccharomyces cerevisiae; unpurified soluble cell extract (CFE) from bead-lysed biomass
T1 sequence (Q6VAA6 1-460): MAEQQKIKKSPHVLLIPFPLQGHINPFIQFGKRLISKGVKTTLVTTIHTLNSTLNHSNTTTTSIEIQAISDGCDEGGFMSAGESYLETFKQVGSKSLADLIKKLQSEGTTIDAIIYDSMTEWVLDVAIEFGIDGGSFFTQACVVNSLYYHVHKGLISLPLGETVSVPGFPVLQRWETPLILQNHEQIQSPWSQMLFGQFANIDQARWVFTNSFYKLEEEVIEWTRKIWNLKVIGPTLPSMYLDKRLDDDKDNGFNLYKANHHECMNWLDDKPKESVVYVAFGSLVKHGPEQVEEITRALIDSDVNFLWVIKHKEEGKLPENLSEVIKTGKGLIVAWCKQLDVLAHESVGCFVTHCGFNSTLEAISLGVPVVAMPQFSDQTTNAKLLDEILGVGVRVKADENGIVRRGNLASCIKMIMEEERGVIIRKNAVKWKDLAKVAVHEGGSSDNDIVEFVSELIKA

[1] = tested on: CFE obtained from the Yarrowia lipolitica steviol glycoside producing strains; assay: bioconversion of rebaudiosideA with CFE of Yarrowia lipolitica steviol glycoside producing strains, UDP-glucose, LC-MS; format: biochemical; details: rebaudiosideA 100-500 μM; CFE 0.1 mg/mL; UDP-glucose 1 mM; products rebaudioside D and rebaudioside M
From the text: Methods to obtain yeast strains expressing constructs encoding the steviol glycoside production pathway are described in WO2013/110673 and WO2015/007748. Here, different Yarrowia lipolitica strains were used: the parent strain (as negative control) and strains expressing the whole steviol glycoside production pathway. Cells were grow o/n in YEPD medium. After determining the optical density at 600 nm (respectively 1.00×10^10 cells/mL for the parent strain cultivation and 6.00-8.57×10^9 cells/mL for different Yarrowia lipolitica steviol glycoside producing strains), cells were lysed with 0.5 mm zirconia beads (see example 2 for details). The protein concentration of the thus obtained CFE were determined using Bradford reagent. The actual obtained protein concentrations ranged from 0,453 mg/mL to 0,771 mg/mL.
A dilution series of rebaudiosideA stock solutions was prepared at 0, 500, 1000, 1500, 2000 and 2500 μM in Van Eunen buffer. The CFE's were diluted in Van Eunen buffer to a concentration of 0.125 mg/m L. A 5 mM stock solution of UDP-glucose was prepared.
The reactions were set-up as described in example 2, only now the concentration of the CFE in the final reaction was doubled. Multiple samples were taken to follow the reactions.
In the reactions the final concentrations were: CFE, 0.1 mg/mL; UDP-glucose, 1 mM; rebaudiosideA, at 0, 100, 200, 300, 400, 500 μM. […]

[2] = suitable for use in carbonated beverages and many other foods; cited from earlier work
[3] = Type II diabetics; studies suggest; cited from earlier work
[4] = mildly hypertensive patients; studies suggest; cited from earlier work
[5] = sweetness relative to sucrose; cited from earlier work

Which “glycosylation of rebaudiosideB into rebaudiosideA by spent biomass derived material” value (UGT3-SEQ ID NO: 74; rebaudioside B 50-200 μM, samples 0-30 min, FIG. 2) does the source give for rebaudioside B here?
Its value is “very efficiently glycosylated”.

Which results are given for `C=C1C[C@@]23CC[C@H]4[C@@](C)(CCC[C@@]4(C)C(=O)O[C@@H]4O[C@H](CO)[C@@H](O)[C@H](O)[C@H]4O)[C@@H]2CC[C@]1(O[C@@H]1O[C@H](CO)[C@@H](O)[C@H](O[C@@H]2O[C@H](CO)[C@@H](O)[C@H](O)[C@H]2O)[C@H]1O[C@@H]1O[C@H](CO)[C@@H](O)[C@H](O)[C@H]1O)C3` [rebaudioside A]?
Vmax of rebaudiosideA formation (UGT3-SEQ ID NO: 74; substrate rebaudioside B 0-200 μM, 30° C., calculated with GraphPad 5): 0.0549±0.004 μmol/mg protein/min; glycosylated products detected by LC-MS [1]: two glycosylated products of rebaudioside A were detected; heat and pH stability [2]: heat and pH stable

Which “effect on blood glucose levels” value [3] does the source give for `C=C1C[C@@]23CC[C@H]4[C@@](C)(CCC[C@@]4(C)C(=O)O[C@@H]4O[C@H](CO)[C@@H](O)[C@H](O)[C@H]4O)[C@@H]2CC[C@]1(O[C@@H]1O[C@H](CO)[C@@H](O)[C@H](O)[C@H]1O[C@@H]1O[C@H](CO)[C@@H](O)[C@H](O)[C@H]1O)C3` [stevioside] here?
The value was “can reduce blood glucose levels”.

What about the “effect on blood pressure” value [4] of the same compound?
The value was “can reduce blood pressure”.

What about the “heat and pH stability” value [2] of the same compound?
The value was “heat and pH stable”.

With `C=C1C[C@@]23CC[C@H]4[C@@](C)(CCC[C@@]4(C)C(=O)O[C@@H]4O[C@H](CO)[C@@H](O)[C@H](O)[C@H]4O[C@@H]4O[C@H](CO)[C@@H](O)[C@H](O)[C@H]4O)[C@@H]2CC[C@]1(O[C@@H]1O[C@H](CO)[C@@H](O)[C@H](O[C@@H]2O[C@H](CO)[C@@H](O)[C@H](O)[C@H]2O)[C@H]1O[C@@H]1O[C@H](CO)[C@@H](O)[C@H](O)[C@H]1O)C3` [rebaudioside D] as the compound, how does the “times sweeter than sucrose” value [5] read?
Its value is “about 200 times”.
